Measurements taken from US20070259439A1, “Determination of antibiotic concentration in bone” (Wyeth, priority 2006, published 2007).
Marks after values point to notes of the source that are not given here.

Key:
[1] = Stability of tigecycline in incurred rat bone and in extracted rat bone sample; assay type: physicochemical
Method: Stability tests for tigecycline in IncRB reference QC samples or incHB QC samples were conducted in 4 cycles of freeze/thaw for IncRB QC and (3 cycles for IncHB QC of −70° C./22° C.) and in standard bench top (22° C.) stability (4 hours for rat bone and 6 hours for human bone) tests. These tests occurred during sequential extraction from run 1 through run 3. Bench top stability of IncRB reference QC samples (4 hours at room temperature) and incurred human bone sample (6 hours at room temperature), and extracted tigecycline from the IncRB and incurred human reference QC samples in the autosampler at 4° C. were evaluated during the method validation. Autosampler stability of tigecycline in IncRB Group B sample (^14C) was employed as the sample pool because aliquots from IncRB Group A were exhausted from prior testing. Results were plotted as the peak area ratio against time. The 54-hour autosampler stability of incurred human bone was performed by comparing extracted samples injected immediate after extraction (baseline) with the same set of extracted samples re-injected after 54 hours of storage at 4° C., regressed with a standard curve injected immediately after extraction (baseline).

in vivo = conditions: rat
Method: Absolute extraction recovery (AbsER): Bone is a heterogeneous tissue and, unlike with a plasma or urine method validation, the extraction recovery cannot be determined with a drug spiked rat bone QC sample. Therefore, it is necessary to measure a virtual known amount of drug in an incurred rat bone sample to determine the absolute extraction recovery. Using combusted IncRB samples from Group B (rats administered radio labeled ^14C-tigecycline), the amount of labeled drug in bone was measured using a liquid scintillation counter. Four aliquots of IncRB Group B (0.1 grams) were accurately weighed, placed into combustion cones, and allowed to air dry for approximately 3 days. These 4 samples were then oxidized in a Model 307/Oximate 80 sample oxidizer, using Carbosorb® E (7 ml) as a trapping agent and PermalFluor® ET (10 ml) as a scintillant. […] The oxidized samples were counted in a Packard (Perkin Elmer) liquid scintillation counter (LSC) using a toluene standard curve. The ng-equiv/ml concentrations were calculated using specific activity of the dosing solution.
In parallel, five aliquots of IncRB Group B (0.1 gram) were weighed. […]
The absolute extraction recovery was determined using the following equation: […]
[total amount of tigecycline per gram of bone (Group B, determined by LC/MS/MS)]/[total amount of tigecycline per gram of bone (Group B, after combustion as determined by LSC)]×100

[2] = test system: Bacillus cereus ATCC 11778; assay: Verification of tigecycline microbiological activity (agar well diffusion bioassay); assay type: cell-based; conditions: for Zone Size, Sample: n = 3
Method: Standard Curve Preparation: A stock solution of tigecycline standard powder, at a concentration of 1000 μg/ml, was prepared in normal saline. Dilutions were prepared in normal saline at a concentration range of 4, 2, 1 and 0.5, 0.25, and 0.125 μg/ml for the preparation of the standard curve. The internal standard (1 μg/ml) was also made from stock solution.
Preparation of Inoculum: An overnight trypticase soy agar blood plate culture (incubated at 30° C.) of Bacillus cereus ATCC 11778 was adjusted to a McFarland 0.5 standard in saline. This suspension yields a bacterial density of approximately 10^8 colony forming units (CFU)/ml.
Preparation of Bioassay Agar Plates: The agar medium was prepared by adding nutrient broth (8 g) and agarose (11 g or […]) per liter of distilled water. After autoclaving at 121° C. for 15 minutes, the medium was allowed to equilibrate to a temperature of 48-50° C. for approximately 1 hour in a water bath. The adjusted B. cereus culture was used to inoculate the cooled agar to a final concentration of 1% (1 ml/100 ml). A volume of 100 ml is added to a Nunc bioassay dish and the agar allowed to solidify at room temperature on a level surface. After cooling, wells were cut into the surface of the agar assay plate using a vacuum well cutting device. The standard curve and unknown samples were placed into the wells (50 μl) in a predetermined array with three wells each per concentration. An internal standard was also tested in triplicate. The pulverized bone samples (and standards for that experiment) were overlaid with 1.1% agarose (50 μl) to maintain contact with the seeded agar. The plates were pre-diffused at 4° C. for two hours, then incubated at 30° C. for 18-24 hours.
Determination of antibiotic concentrations in IncRB samples: The diameters of the zones of inhibition for standards and samples were measured using electronic calipers. The concentrations of the standard curve were then plotted on a semilogarithmic scale vs their corresponding zone diameters to give a standard regression curve. The concentrations of the samples and internal standard were determined by comparing the mean zone size of the samples to the zone sizes of the standard curve and their corresponding concentration. A bioassay data analysis program was used to perform the calculations and plots.

[3] = Bone Extract (non-neutralized) (pH 1.7), IncRB Group B

CN(C)c1cc(NC(=O)CNC(C)(C)C)c(O)c2c1C[C@H]1C[C@H]3[C@H](N(C)C)C(O)=C(C(N)=O)C(=O)[C@@]3(O)C(O)=C1C2=O [tigecycline, Tigecycline]
Freeze/thaw stability in incurred rat bone ([1]; after 4 cycles of freeze/thaw (−70° C./22° C.)): stable | Bench top stability in incurred rat bone ([1]; after 4 hours at room temperature): stable | Stability of extracted tigecycline from IncRB samples ([1]; extracted sample at 4° C., no stabilizing agent): 8.5 h | Storage stability in incurred rat bone ([1]; stored at −70° C.): at least 5 months | Re-injection stability of extracted tigecycline ([1]; within 5 hours, no stabilizing agent): 5 re-injections | concentration at 4 h (in vivo): 3190 ng/g | Measured conc. (in vivo; 4 h): 4137^a ng-equivalent/g of bone | Zone Size, Sample minus diluent [2, 3]: 11.8 mm | Zone Size, Sample [2, 3]: 33.3 mm | Zone Size, Sample minus diluent ([2]; Neutralized Bone Extract A (pH 7.0)): 0 mm | Zone Size, Sample ([2]; Neutralized Bone Extract A (pH 7.0), neutralization prior to methanol evaporation): 0 mm | Zone Size, Sample minus diluent ([2]; Neutralized Bone Extract B (pH 7.0)): 0 mm | Zone Size, Sample ([2]; Neutralized Bone Extract B (pH 7.0), neutralization after methanol evaporation): 0 mm
